Assay results as given in US10329273B2, “Tetrazolone-substituted dihydropyridinone MGAT2 inhibitors” (BRISTOL-MYERS SQUIBB COMPANY, priority 2014, dated 2019).
pIC50: −log10 of the molar value.

Target: human MGAT-2 (Homo sapiens (Human), UniProt Q3SYC2)
Assay: MGAT LCMS assay
Type: biochemical
Conditions: human MGAT-2 membranes expressed in Sf9 cells; 100 μM 2-oleoylglycerol, 15 μM oleoyl-coenzyme A; read-out: h-MGAT LCMS IC50
Protocol: The MGAT enzyme reactions were performed in Corning FALCON® 96-well polypropylene plates, in a total volume of 60 μL of 50 mM potassium phosphate buffer pH 7.4, containing a final concentration of 100 μM 2-oleoylglycerol, 15 μM oleoyl-coenzyme A and 0.0013 μg/μL human or mouse MGAT-2 or 0.0026 μg/μL rat recombinant MGAT-2 membranes expressed in Sf9 cells. Assay plates were run through a fully automated robotics system and shaken for 5 seconds every minute for a total 10 minutes. The reactions were then quenched with 120 μL of ice cold methanol containing 1 μg/mL 1,2-distearoyl-rac-glycerol as the internal standard. Plates were shaken for 2 minutes and spun down to remove protein precipitation. After the spin, samples were transferred to LC/MS compatible PCR plates. For LC/MS analysis, a ThermoFisher Surveyor pump, utilizing a Waters SYMMETRY® C8, 50×2.1 mm column, was used for the chromatography of enzyme products. The buffer system consists of 0.1% formic acid in water with a mobile phase consisting 0.1% formic acid in methanol. The shallow gradient is 90-100% mobile phase in 0.2 min with a total run time of 2.3 min. […]
The exemplified Examples disclosed below were tested in the MGAT2 in vitro assays described above and were found having MGAT2 inhibitory activity. Table 1 below lists human MGAT2 IC50 values measured for the following examples.

Chain of human MGAT-2 (Q3SYC2 whole entry): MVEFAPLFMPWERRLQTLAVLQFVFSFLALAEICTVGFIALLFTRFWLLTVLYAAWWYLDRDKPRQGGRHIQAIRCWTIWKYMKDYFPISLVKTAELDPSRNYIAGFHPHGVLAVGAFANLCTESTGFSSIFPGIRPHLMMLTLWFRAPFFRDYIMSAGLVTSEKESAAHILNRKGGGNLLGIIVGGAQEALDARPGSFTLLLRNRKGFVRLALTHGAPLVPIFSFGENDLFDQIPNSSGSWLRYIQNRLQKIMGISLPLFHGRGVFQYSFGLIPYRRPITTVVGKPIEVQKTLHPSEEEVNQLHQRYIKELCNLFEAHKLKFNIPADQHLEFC

pIC50: 8.30
SMILES: O=C1N[C@@](c2ccc(OCCCC(F)(F)F)cc2F)(C(F)(F)F)CC(c2ccn(CC3CCC3)n2)=C1n1nn[nH]c1=O [Example 16]
